In US8674109B2, “Pesticidal compositions” (Dow AgroSciences, LLC., priority 2009, dated 2014):

Columns and labels:
Type in all cases: in vivo
[1] = test system: beet armyworm (BAW; Spodoptera exigua: Lepidoptera); test: Insecticidal test for beet armyworm, 128-well diet tray assay
Method in brief: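 Three to five second-instar larvae per well fed on artificial diet surface-treated with 50 μg/cm^2 compound (applied in 90:10 acetone-water, dried). Trays were held six days at 25 °C, 14:10 light-dark. Percent mortality was averaged across eight wells.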

[2] = test system: corn earworm (CEW; Helicoverpa zea: Lepidoptera); test: Insecticidal test for corn earworm, 128-well diet tray assay
Method in brief: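 Second-instar larvae, three to five per well, placed on artificial diet treated with 50 μg/cm^2 compound applied in 90:10 acetone-water and dried. Held six days at 25° C., 14:10 light-dark. Percent mortality scored per well and averaged over eight wells.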

[3] = test system: green peach aphid (Myzus persicae); test: Insecticidal test for green peach aphid in foliar spray assay on cabbage seedlings
Method in brief: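 Cabbage seedlings carrying 20-50 aphids (adults and nymphs) were sprayed to runoff with compound at 200 ppm in acetone/methanol diluted in 0.025% Tween 20, with four pots per treatment. After three days at about 25 °C and 40% RH, live aphids were counted. Percent control was Abbott-corrected against solvent-check plants.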

Row | Structure (SMILES) | % Mortality BAW 50 μg/cm^2 [1] | % Mortality CEW 50 μg/cm^2 [2] | % Mortality GPA 200 ppm [3]
1 | Cc1cccc(C(C)OC(=O)Nc2ccc(-c3ncn(-c4ccc(OC(F)(F)F)cc4)n3)cc2)n1 (stereo not drawn) [Compound 37] | A (50-100) | A (50-100) | B (Less than 80)
2 | C#Cc1ccc(C(C)OC(=O)Nc2ccc(-c3ncn(-c4ccc(OC(F)(F)F)cc4)n3)cc2)cc1 (stereo not drawn) [Compound 44] | A (50-100) | A (50-100) | B (Less than 80)
3 | CCCC(C)(C)OC(=O)Nc1ccc(-c2ncn(-c3ccc(OC(F)(F)F)cc3)n2)cc1 [Compound 6] | A (50-100) | B (Less than 50) | B (Less than 80)
4 | O=C(Nc1ccc(-c2ncn(-c3ccc(OC(F)(F)F)cc3)n2)cc1)OC(c1ccccc1)c1ccccc1 [Compound 83] | A (50-100) | A (50-100) | B (Less than 80)
